Laboratory results taken from US20250049036A1 (priority 2021, published 2025).

What was measured:
Colletotrichum capsici = Colletotrichum capsici (anthracnose) mycelial radial growth on potato dextrose agar; type: cell-based; conditions: Colletotrichum truncatum, 168 h, 25° C., seven days, read-out: control compared to the untreated check
Description: The compounds were dissolved in 0.3% dimethyl sulfoxide and then added to potato dextrose agar medium just prior to dispensing it into petri dishes. 5 mL medium, with the compound in the desired concentration, was dispensed into 60 mm sterile petri-plates. After solidification, each plate was seeded with a 5 mm size mycelial disc taken from the periphery of an actively growing virulent culture plate. The plates were incubated in growth chambers at 25° C. temperature and 60% relative humidity for seven days and the radial growth was measured and compared to the one of the untreated control.

Parastagonospora nodorum = Parastagonospora nodorum (PARANO) spore growth inhibition in liquid medium, 96-well microtiter plate, OD 600; type: cell-based; conditions: spore suspension in PDB liquid medium, 18° C., 5-6 days, OD at 600, read-out: control compared to the untreated check
Description: Potato dextrose (PDB) liquid medium (Difco) containing a PARANO (10^5 spores/ml) spore suspension was prepared. For the inhibition assay, each test compound was solved in dimethyl sulfoxide. 100 μl of the test compound in media-solution was added to a 96-well microtiter plate, consequently, the same volume (100 μl) of spore suspension was added to the well making the final test concentrations and the plate was incubated at 18° C. for 5-6 days. The growth inhibition was evaluated by measuring the OD at 600. Percent inhibition was calculated with the below formula: […]

Botrytis cinerea [1] = assay: Botrytis cinerea liq. (BOTRCI) spore growth inhibition in liquid medium, 96-well microtiter plate, OD 405 nm; type: cell-based; conditions: spore suspension in YBA liquid medium, 22° C., 5-6 days, OD at 405 nm, read-out: control compared to the untreated check
Description: Yeast bacterial peptone and sodium acetate (YBA) liquid medium containing a BOTRCI (10^4 spores/ml) spore suspension was prepared. For the inhibition assay, each test compound was solved in dimethyl sulfoxide. 100 μl of the test compound in media-solution was added to a 96-well microtiter plate, consequently, the same volume (100 μl) of spore suspension was added to the well making the final test concentrations and the plate was incubated at 22° C. for 5-6 days. The growth inhibition was evaluated by measuring the OD at 405 nm. Percent inhibition was calculated with the below formula:
Where T=treatment, C=control, and B=blank

Phytophthora infestans = assay: microbe, parasite or virus in culture; type: cell-based; conditions: 168 h, read-out: control compared to the untreated check
Botrytis cinerea [2] = assay: Botrytis cinerea test on tomato, preventive, greenhouse; type: in vivo; conditions: preventive spray on bean/chili plants (heading: tomato), inoculated one day after treatment, read-out: control (efficacy, disease severity) compared to the untreated check
Phakopsora pachyrhizi = Phakopsora pachyrhizi test on soybean, preventive, greenhouse; type: in vivo; conditions: preventive spray on soybean, inoculated one day after treatment, read-out: control (efficacy, disease severity) compared to the untreated check
Description: The respective compound was dissolved in 2% dimethyl sulfoxide/acetone and then mixed with water containing emulsifier to the calibrated spray volume of 30 mL. Each spray solution was poured into a spray bottle for further application.
To test the preventive activity of a compound, healthy young soybean plants, raised in the greenhouse, were sprayed with the active compound preparation at the stated application rate inside the spray cabinets using hollow cone nozzles. One day after treatment, the plants were inoculated with a conidial suspension containing 2×10^5 Phakopsora pachyrhizi inoculum. The inoculated plants were then kept in a greenhouse chamber at 22-24° C. temperature and 80-90% relative humidity for disease expression.

Pyricularia oryzae = assay: microbe, parasite or virus in culture; type: cell-based; conditions: 168 h, read-out: control compared to the untreated check

SMILES: COc1nc2c(cc1C(=O)NCC1(c3ccccc3)CC1)CCC2 [Compound 247, 2-methoxy-N-((1-phenylcyclopropyl)methyl)-6,7-dihydro-5H-cyclopenta[b]pyridine-3-carboxamide]
- inhibition of growth at 300 ppm (Colletotrichum capsici): ≥ 70%
- inhibition of growth at 300 ppm (Parastagonospora nodorum): ≥ 70%
- inhibition of growth at 300 ppm (Botrytis cinerea [1]): ≥ 70%

SMILES: CC(C)(COC(=O)c1cccc(F)c1)NC(=O)c1cnc2cc[nH]c2c1 [Compound 156, 2-methyl-2-(1H-pyrrolo[3,2-b]pyridine-6-carboxamido)propyl 3-fluorobenzoate]
- inhibition of growth at 300 ppm (Phytophthora infestans): ≥ 70%

SMILES: Cn1cc(Br)c2cc(C(=O)NC(C)(C)Cc3ccccc3)cnc21 [Compound 46]
- pest or weed control at 500 ppm (Botrytis cinerea [2]): ≥ 70%
- pest or weed control at 500 ppm (Phakopsora pachyrhizi): ≥ 70%
- inhibition of growth at 300 ppm (Pyricularia oryzae): ≥ 70%

SMILES: COc1cc(C(O)C(C)(C)NC(=O)c2cnc3c(ccn3C)c2)ccc1F (centres unmarked) [Compound 123, N-(1-(4-fluoro-3-methoxyphenyl)-1-hydroxy-2-methylpropan-2-yl)-1-methyl-1H-pyrrolo[2,3-b]pyridine-5-carboxamide]
- inhibition of growth at 300 ppm (Phytophthora infestans): ≥ 70%

SMILES: C=C(C)CC(C)(COc1ccc(F)cc1)NC(=O)c1cnc2ccsc2c1 (centres unmarked) [Compound 122, N-(1-(4-fluorophenoxy)-2,4-dimethylpent-4-en-2-yl)thieno[3,2-b] pyridine-6-carboxamide]
- pest or weed control at 500 ppm (Botrytis cinerea [2]): ≥ 70%
- inhibition of growth at 300 ppm (Colletotrichum capsici): ≥ 70%

SMILES: Cn1cc(Br)c2cc(C(=O)NC(C)(C)COCc3cc(F)ccc3Cl)cnc21 [Compound 232, 3-bromo-N-(1-((2-chloro-5-fluorobenzyl)oxy)-2-methylpropan-2-yl)-1-methyl-1H-pyrrolo[2,3-b]pyridine-5-carboxamide]
- inhibition of growth at 300 ppm (Parastagonospora nodorum): ≥ 70%
- inhibition of growth at 300 ppm (Botrytis cinerea [1]): ≥ 70%

SMILES: COc1nc2c(ccn2C)cc1C(=O)NC(C)(C)Cc1ccccc1 [Compound 91, 6-methoxy-1-methyl-N-(2-methyl-1-phenylpropan-2-yl)-1H-pyrrolo[2,3-b] pyridine-5-carboxamide]
- inhibition of growth at 300 ppm (Phytophthora infestans): ≥ 70%

SMILES: Cn1ccc2cc(C(=O)NC(C)(C)COc3ccnc(Cl)c3)cnc21 [Compound 229, N-(1-((2-chloropyridin-4-yl)oxy)-2-methylpropan-2-yl)-1-methyl-1H-pyrrolo[2,3-b]pyridine-5-carboxamide]
- inhibition of growth at 300 ppm (Phytophthora infestans): ≥ 70%

SMILES: O=C(NCC1(c2ccccc2)CC1)c1cc2c(nc1Cl)CCC2 [Compound 248, 2-chloro-N-((1-phenylcyclopropyl)methyl)-6,7-dihydro-5H-cyclopenta[b]pyridine-3-carboxamide]
- inhibition of growth at 300 ppm (Phytophthora infestans): ≥ 70%

SMILES: Cn1ccc2cc(C(=O)NC(C)(C)Cc3ccc(F)cc3F)cnc21 [Compound 20]
- inhibition of growth at 300 ppm (Colletotrichum capsici): ≥ 70%
- inhibition of growth at 300 ppm (Pyricularia oryzae): ≥ 70%
- inhibition of growth at 300 ppm (Botrytis cinerea [1]): ≥ 70%

SMILES: CC(c1ccccc1)C(C)(C)NC(=O)c1cnc2c(ccn2C)c1 (centres unmarked) [Compound 8, 1-methyl-N-(2-methyl-3-phenylbutan-2-yl)-1H-pyrrolo[2,3-b] pyridine-5-carboxamide]
- inhibition of growth at 300 ppm (Colletotrichum capsici): ≥ 70%
- inhibition of growth at 300 ppm (Parastagonospora nodorum): ≥ 70%
- inhibition of growth at 300 ppm (Pyricularia oryzae): ≥ 70%
- inhibition of growth at 300 ppm (Botrytis cinerea [1]): ≥ 70%

SMILES: Cc1cccc(CC(NC(=O)c2cnc3ccsc3c2)C(C)(C)O)c1 (centres unmarked) [Compound 114, N-(3-hydroxy-3-methyl-1-(m-tolyl)butan-2-yl)thieno[3,2-b] pyridine-6-carboxamide]
- inhibition of growth at 300 ppm (Phytophthora infestans): ≥ 70%

SMILES: CC(CCc1ccccc1)NC(=O)c1cc2c(nc1Cl)CCC2 (centres unmarked) [Compound 250, 2-chloro-N-(4-phenylbutan-2-yl)-6,7-dihydro-5H-cyclopenta[b]pyridine-3-carboxamide]
- inhibition of growth at 300 ppm (Phytophthora infestans): ≥ 70%

SMILES: CC(C)(COc1ccccn1)NC(=O)c1cnc2ccsc2c1 [Compound 212, N-(2-methyl-1-(pyridin-2-yloxy)propan-2-yl)thieno[3,2-b] pyridine-6-carboxamide]
- inhibition of growth at 300 ppm (Phytophthora infestans): ≥ 70%

SMILES: CC(C)(COc1ccnc(Cl)c1)NC(=O)c1cc2c(nc1Cl)CCC2 [Compound 244, 2-chloro-N-(1-((2-chloropyridin-4-yl)oxy)-2-methylpropan-2-yl)-6,7-dihydro-5H-cyclopenta[b]pyridine-3-carboxamide]
- inhibition of growth at 300 ppm (Parastagonospora nodorum): ≥ 70%
- inhibition of growth at 300 ppm (Botrytis cinerea [1]): ≥ 70%

SMILES: CC(C)(COC(=O)c1ccccc1C(F)(F)F)NC(=O)c1cnc2c(c1)CCCC2 [Compound 150, 2-methyl-2-(5,6,7,8-tetrahydroquinoline-3-carboxamido)propyl 2-(trifluoromethyl)benzoate]
- pest or weed control at 500 ppm (Botrytis cinerea [2]): ≥ 70%
- pest or weed control at 500 ppm (Phakopsora pachyrhizi): ≥ 70%
- inhibition of growth at 300 ppm (Parastagonospora nodorum): ≥ 70%

SMILES: CC(C)(COc1ccccn1)NC(=O)c1cc2c(nc1Cl)CCC2 [Compound 242, 2-chloro-N-(2-methyl-1-(pyridin-2-yloxy)propan-2-yl)-6,7-dihydro-5H-cyclopenta[b]pyridine-3-carboxamide]
- inhibition of growth at 300 ppm (Botrytis cinerea [1]): ≥ 70%

SMILES: Cn1cc(Cl)c2cc(C(=O)NC(C)(C)COc3ccc(F)cn3)cnc21 [Compound 221, 3-chloro-N-(1-((5-fluoropyridin-2-yl)oxy)-2-methylpropan-2-yl)-1-methyl-1H-pyrrolo[2,3-b]pyridine-5-carboxamide]
- inhibition of growth at 300 ppm (Botrytis cinerea [1]): ≥ 70%

SMILES: COc1cc(C(=O)OCC(C)(C)NC(=O)c2cnc3ccsc3c2)ccc1F [Compound 124, 2-methyl-2-(thieno[3,2-b]pyridine-6-carboxamido)propyl 4-fluoro-3-methoxybenzoate]
- pest or weed control at 500 ppm (Botrytis cinerea [2]): ≥ 70%
- inhibition of growth at 300 ppm (Parastagonospora nodorum): ≥ 70%
- inhibition of growth at 300 ppm (Pyricularia oryzae): ≥ 70%

SMILES: Cn1cc(Br)c2cc(C(=O)NC(C)(C)COc3ccc(F)cn3)cnc21 [Compound 216, 3-bromo-N-(1-((5-fluoropyridin-2-yl)oxy)-2-methylpropan-2-yl)-1-methyl-1H-pyrrolo[2,3-b]pyridine-5-carboxamide]
- inhibition of growth at 300 ppm (Phytophthora infestans): ≥ 70%

SMILES: CC(C)(COc1ccc(F)cn1)NC(=O)c1cnc2ccsc2c1 [Compound 207, N-(1-((5-fluoropyridin-2-yl)oxy)-2-methylpropan-2-yl)thieno[3,2-b] pyridine-6-carboxamide]
- inhibition of growth at 300 ppm (Phytophthora infestans): ≥ 70%

SMILES: CON(C(=O)c1cnc2c(ccn2C)c1)C(C)Cc1ccccc1F (centres unmarked) [Compound 239, N-(1-(2-fluorophenyl)propan-2-yl)-N-methoxy-1-methyl-1H-pyrrolo[2,3-b]pyridine-5-carboxamide]
- inhibition of growth at 300 ppm (Parastagonospora nodorum): ≥ 70%
- inhibition of growth at 300 ppm (Pyricularia oryzae): ≥ 70%
- inhibition of growth at 300 ppm (Botrytis cinerea [1]): ≥ 70%

SMILES: Cn1cc(Br)c2cc(C(=O)NC(C)(C)COCc3ccccc3C#N)cnc21 [Compound 196]
- inhibition of growth at 300 ppm (Phytophthora infestans): ≥ 70%

SMILES: Cn1cc(C2CC2)c2cc(C(=O)NC(C)(C)Cc3ccccc3)cnc21 [Compound 54, 3-cyclopropyl-1-methyl-N-(2-methyl-1-phenylpropan-2-yl)-1H-pyrrolo[2,3-b] pyridine-5-carboxamide]
- pest or weed control at 500 ppm (Botrytis cinerea [2]): ≥ 70%
- pest or weed control at 500 ppm (Phakopsora pachyrhizi): ≥ 70%

SMILES: Cc1ccc(COCC(C)(C)NC(=O)c2cnc3c(c2)c(Br)cn3C)c(C)c1 [Compound 201, 3-bromo-N-(1-((2,4-dimethylbenzyl)oxy)-2-methylpropan-2-yl)-1-methyl-1H-pyrrolo[2,3-b]pyridine-5-carboxamide]
- inhibition of growth at 300 ppm (Phytophthora infestans): ≥ 70%

SMILES: CC(C)(CO)NC(=O)c1cnc2ccsc2c1 [Compound 111, N-(1-hydroxy-2-methylpropan-2-yl)thieno[3,2-b] pyridine-6-carboxamide]
- inhibition of growth at 300 ppm (Phytophthora infestans): ≥ 70%

SMILES: CC(C)(COc1ccc(F)cn1)NC(=O)c1cnc2c(c1)CCC2 [Compound 233, N-(1-((5-fluoropyridin-2-yl)oxy)-2-methylpropan-2-yl)-6,7-dihydro-5H-cyclopenta[b]pyridine-3-carboxamide]
- inhibition of growth at 300 ppm (Phytophthora infestans): ≥ 70%

SMILES: Cn1cc(Br)c2cc(C(=O)NC(C)(C)Cc3ccccc3Cl)cnc21 [Compound 84, 3-bromo-N-(1-(2-chlorophenyl)-2-methylpropan-2-yl)-1-methyl-1H-pyrrolo[2,3-b]pyridine-5-carboxamide]
- pest or weed control at 500 ppm (Botrytis cinerea [2]): ≥ 70%
- pest or weed control at 500 ppm (Phakopsora pachyrhizi): ≥ 70%

SMILES: Cn1cc(Cl)c2cc(C(=O)NC(C)(C)COc3ccccn3)cnc21 [Compound 219, 3-chloro-1-methyl-N-(2-methyl-1-(pyridin-2-yloxy)propan-2-yl)-1H-pyrrolo[2,3-b] pyridine-5-carboxamide]
- inhibition of growth at 300 ppm (Pyricularia oryzae): ≥ 70%
- inhibition of growth at 300 ppm (Botrytis cinerea [1]): ≥ 70%
